In data set [1] the test system is EDEN2 (clinical DENV2 isolate). The data set is described as follows: Antiviral effect in Vero cells, plaque assay of supernatant 48 h pi. The settings on record: EDEN2, MOI 0.3, read-out: EC50. Type of data set: cell-based. As to the method: (§1) Cells were infected with DENV strains for 1 hour at 37° C. and washed once with culture media. […] The supernatants were subjected to standard plaque assay and the EC50 values were determined using the GraphPad Prism software.
(§2) NITD008, an adenosine analog inhibitor of DENV polymerase (Yin et al., 2009) was used as a positive control.

Data set [2] concerns EDEN1 (clinical DENV1 isolate). The description is as above. Type of data set: cell-based. As to the method:
as §1, §2

Data set [3] has as its system S221 (mouse-adapted DENV2 strain). The description is as above. Type of data set: cell-based. The settings on record: S221, MOI 0.3, read-out: EC50. As to the method: as §1, §2
Data set [4] deals with EDEN2 (clinical DENV2 isolate). The data set can be described thus: Antiviral effect in HuH-7 cells, plaque assay of supernatant 48 h pi. Type of data set: cell-based. The settings on record: HuH-7, EDEN2, MOI 0.3; read-out: EC50. As to the method: as §1, §2
Data set [5] deals with EDEN1 (clinical DENV1 isolate). Described as above. Type of data set: cell-based. The settings on record: read-out: EC50. As for the experimental part:
as §1, §2

Data set [6] relates to S221 (mouse-adapted DENV2 strain). The data set is described as above. Type of data set: cell-based. The settings on record: HuH-7, S221, MOI 0.3; read-out: EC50. As for the experimental part: as §1, §2
For another data set, the system named is EDEN2. The data set is described as follows: Non-lethal viremia mouse model. Type of data set: in vivo, mice. As for the experimental part:
(§3) Mice were inoculated i.v. with EDEN1 (7×10^7 pfu) or EDEN2 (1×10^8 pfu). […] Average viral copy numbers on day 1 and 2 were measured using mixed serum of each group. […] A P value less than 0.05 was considered significant (*P<0.05). The number of mice per group is 6. […] Average viral copy numbers on days 4 and 5 were measured using mixed serum of each group. […] The virological log reduction (VLR) from day 3 to day 6 was also shown as the mean value and standard deviations. The number of mice per group is 6.
(§4) Since dengue fever patients in general present at a clinic when viremia is at a peak level (Low et al., 2014; Nguyen et al., 2013; Tricou et al., 2010), we next compared the 2 different dosing regimens; one started at the time of infection and another started at the time of peak viremia (on day 3 pi) similar to human situation (FIG. 4A). In this experiment, we used a non-lethal viremia mouse model, which permits the tracking of viremia kinetics for a longer period of time (FIG. 1B).

The subject of the next data set is EDEN1. The data set is described as follows: Non-lethal viremia mouse model. Type of data set: in vivo, mice. As to the method:
as §3, §4

Data set [7] concerns EDEN2 (clinical DENV2 isolate). The data set is described as follows: Ab-mediated infection of THP-1 cells with enhancing concentration of 4G2 Ab. Type of data set: cell-based. The settings on record: THP-1 with 4G2 Ab, EDEN2, MOI 50, single experiment; read-out: EC50. As for the experimental part: as §1, §2
Data set [8] concerns EDEN1 (clinical DENV1 isolate). The data set is described as above. Type of data set: cell-based. The settings on record: THP-1 with 4G2 Ab, EDEN1, MOI 2, single experiment; read-out: EC50. As to the method:
as §1, §2

In data set [9] the test system is S221 (mouse-adapted DENV2 strain). Described as above. Type of data set: cell-based. The settings on record: THP-1 with 4G2 Ab, S221, MOI 2, single experiment; read-out: EC50. As for the experimental part:
as §1, §2

In data set [10] the test system is EDEN2 (clinical DENV2 isolate). The data set can be described thus: Antiviral effect in BHK-21 cells, plaque assay of supernatant 48 h pi. The settings on record: BHK-21, EDEN2, MOI 0.3; read-out: EC50. Type of data set: cell-based. As for the experimental part: as §1, §2
Data set [11] relates to EDEN1 (clinical DENV1 isolate). Described as above. Type of data set: cell-based. The note with it: read-out: EC50. As for the experimental part: as §1, §2
Data set [12] has as its system S221 (mouse-adapted DENV2 strain). The description is as above. Type of data set: cell-based. The note with it: BHK-21, S221, MOI 0.3; read-out: EC50. As for the experimental part:
as §1, §2

The conditions of data set [13]: CELADEN study regimen, human; cited from earlier work.
The conditions of data set [14]: mice, celgosivir 50 mg/kg BID; cited from earlier work.

Results on 2 compounds are retold here after patent publication US11000516B2 (priority 2015, dated 2021).

For `C#C[C@@]1(O)[C@H](O)[C@@H](CO)O[C@H]1n1ccc2c(N)ncnc21` [NITD008, reference compound], the EC50 (in general, the midpoint of the concentration-response curve) was 1170 nM in [1]; 910 nM in data set [2] (EDEN1, MOI 0.01, read-out: EC50); 2820 nM in data set [2] (EDEN1, MOI 0.3, read-out: EC50); 1480 nM in [3]; 98 nM in [4]; 356 nM in [5] (HuH-7, EDEN1, MOI 0.01). The concentration for a half-maximal effect (EC50) worked out at 684 nM in data set [5] (HuH-7, EDEN1, MOI 0.3); 74 nM in data set [6]; 679 nM in data set [7]; 358 nM in data set [8]; 390 nM in data set [9]; 354 nM in data set [10]. The EC50 in data set [11] (BHK-21, EDEN1, MOI 0.01) was found to be 608 nM; in [11] (BHK-21, EDEN1, MOI 0.3), 865 nM; in [12] it was 509 nM. Besides, the “viremia reduction on day 3 pi” value with EDEN2 (EDEN2, NITD008 25 mg/kg BID from day 0) stood at 4.9 fold; in the data set with EDEN1 (EDEN1, NITD008 25 mg/kg BID from day 0), 3.5 fold. Besides, the “VLR from day 3 to day 6” value with EDEN2 (EDEN2, NITD008 25 mg/kg BID started on day 3) worked out at 2.24; in the data set on EDEN1 (EDEN1, NITD008 25 mg/kg BID started on day 3), 0.96.

On to `O[C@H]1[C@H](O)[C@@H](O)CN2CC[C@H](O)[C@H]12` [castanospermine], for which, in data set [13], the “steady state maximum castanospermine concentration” value is given as 5100 nanograms/ml. Moreover, the “steady state minimum castanospermine concentration” value in [14] is 400 nanograms/ml.
